Values quoted from earlier work in patent publication US20170001953A1, “FUMARATE COMPOUNDS, PHARMACEUTICAL COMPOSITIONS THEREOF, AND METHODS OF USE” (priority 2015, published 2017).

- aqueous solubility: poor
Structure (SMILES): COC(=O)/C=C/C(=O)OC [DMF, dimethylfumarate]
